Where two headings read alike, the source gives them in different places.

Data on 4 compounds can be found in PMC7822176, “Pursuing the Complexity of Alzheimer’s Disease: Discovery of Fluoren-9-Amines as Selective Butyrylcholinesterase Inhibitors and N-Methyl-D-Aspartate Receptor Antagonists” (Biomolecules, 2020).

The target of data set [1] is T1, hBChE (Homo sapiens, UniProt P06276).
T1 construct: made in house
Description: biochemical. It is filed as biochemical. The conditions noted are these: for IC50: mean of at least three experiments, read-out: IC50 ± SEM hBChE. The method, then: The human recombinant BChE and AChE were prepared at the Department of Toxicology and Military Pharmacy (Faculty of Military Health Sciences, Hradec Kralove, Czech Republic). 5,5′-dithiobis(2-nitrobenzoic acid) (Ellman’s reagent, DTNB), phosphate buffer (PB, pH 7.4), acetylthiocholine (ATC), and butyrylthiocholine (BTC) were purchased from Sigma-Aldrich, Prague, Czech Republic. For measuring purposes, polystyrene Nunc 96-well microplates with a flat bottom shape (Thermo Fisher Scientific, Waltham, MA, USA) were utilized. All the assays were carried out in 0.1-M KH2PO4/K2HPO4 buffer, pH 7.4. Enzyme solutions were prepared at 2.0 units/mL in 2-mL aliquots. […] Tested compounds were preincubated for 5 min. The reaction was started by the immediate addition of 20 µL of the substrate. […] Each concentration was assayed in triplicate. Software GraphPad Prism 5 (San Diego, CA, USA) was used for the statistical data evaluation.

A short description of data set [2]: MTT cell viability assay, CHO-K1. It counts as cell-based. To be noted: Chinese hamster, CHO-K1 cells, 24 h exposure, mean of three independent measurements, read-out: IC50 ± SEM CHO-K1 cell viability. The method, then: (§1) Standard MTT assay (3-(4,5-dimethylthiazol-2-yl)-2,5-diphenyltetrazolium bromide; Sigma Aldrich, Prague, Czech Republic) was used according to the manufacturer’s protocols on the CHO-K1 (Chinese hamster ovary, ECACC, Salisbury, UK) and hCMEC/D3 (Sigma Aldrich, St. Louis, MO, USA). The cells were cultured according to recommended conditions and seeded in a density of 8000 cells per well, as described previously. […] CHO-K1 cells were exposed to serially diluted tested compounds for 24 h. Then, the medium was replaced by a fresh medium containing 0.5 mg/mL of MTT, and the cells were allowed to produce formazan for another approximately 3 h under surveillance. Thereafter, the medium with MTT was removed, and crystals of formazan were dissolved in DMSO (100 µL/well; PENTA s.r.o., Prague, Czech Republic). Cell viability was assessed spectrophotometrically by the amount of formazan produced. The absorbance was measured at 570 nm with a 650-nm reference wavelength on Synergy HT (BioTek, Winooski, VT, USA). The IC50 value (half-maximal inhibitory concentration) was calculated from the control-subtracted triplicates using nonlinear regression (four parameters) by GraphPad Prism 7.03 software (GraphPad Software Inc., San Diego, CA, USA) for the CHO-K1 cell line, and for hCMEC/D3 cells, the cell viability was expressed as the % relative to the untreated control. Final IC50 and SEM (standard error of the mean) values were obtained as a mean of three independent measurements.

Data set [3] can be described thus: MTT cell viability test, hCMEC/D3. It counts as cell-based. The conditions noted are these: human, read-out: % viable cells hCMEC/D3. The method, then: as §1, with “The IC50 value (half-maximal inhibitory concentration) was calculated from the control-subtracted triplicates using nonlinear regression (four parameters) by GraphPad Prism 7.03 software (GraphPad Software Inc., San Diego, CA, USA) for the CHO-K1 cell line, and for hCMEC/D3 cells, the cell viability was expressed as the % relative to the untreated control.” left out
Background: Tetrazolium dyes change colour on reduction, which living cells bring about.

Data set [4] deals with hCMEC/D3 cell monolayer. In words: in vitro. The conditions noted are these: for potential of BBB permeation (in words): Papp correlated to reference drugs. The method, then:
(§2) The D3 assay evaluates the ability of compounds to diffuse from the donor compartment through the D3/hCMEC cell membrane into the acceptor compartment. The D3 cells were seeded on a PET membrane (area 1.12 cm^2) with 3-µm pores of the 12-well plates with 12-mm inserts. […] The donor solution (750 µL) was added to the donor compartment (insert), and the same volume of Opti-MEM was added into the acceptor. The concentration of the drug in both compartments was measured by UV-VIS spectrophotometry in 5, 15, 30, and 60 min of incubation in triplicates. The apparent permeability coefficient (Papp) was calculated from the concentration ratios. Tightness of the D3 monolayer was conducted by the fluorescein isothiocyanate (FITC) test after each experiment. […] (1) Papp= dC/dt × Vr/A × C0 • A: area of the well/cell monolayer, • dC/dt: amount in the receiver compartment in given time, • Vr: volume of the receiver compartment, and • C0: the initial concentration of tested compounds.

Data set [5] can be described thus: in vitro. To be noted: human. As to the method:
as §2

Data set [6] addresses T1, hBChE. In words: Kinetic study of hBChE inhibition. It is filed as biochemical. As to the method: The kinetic study of hBChE was performed by using the above-mentioned modified Ellman’s method. The values of Vmax and Km of the Michaelis-Menten kinetics, as well as the value of Ki, were calculated by nonlinear regression from the substrate velocity curves. Linear regression was used for calculation of the Cornish-Bowden plots. All calculations were performed using GraphPad Prism software version 6.07 for Windows (San Diego, CA, USA).

For data set [7], the target named is T2, GluN1/GluN2B receptors (Homo sapiens, UniProt Q05586+Q13224).
T2 construct: expressed in transfected cells; host or cells: HEK293
In words: cell-based. To be noted: for inhibition at 10 µM: HEK293, read-out: RI (%) ± SEM GluN1/GluN2B. The method, then:
(§3) The cells grown in a 24-well plate were put in Opti-MEM I media containing a mixture of 0.9 µL of MATra-A Reagent (IBA) and 900 ng of DNA vectors carrying the human versions of the GluN1-1a (GluN1), GluN2A, or GluN2B subunits and green fluorescent protein (GFP; all vectors were added in equal ratio). The cells were placed on a strong magnet plate for 30 min and then trypsinized; resuspended in Opti-MEM I containing 1% FBS, 20-mM MgCl2, and 3-mM kynurenic acid (to inhibit the NMDAR-induced excitotoxicity); and plated on poly-L-lysine-coated glass coverslips. The electrophysiological experiments were executed 24–48 h after transfection.
(§4) Whole-cell patch-clamp recordings were conducted at room temperature on the GFP-positive HEK293 cells using an Axopatch 200B amplifier (Molecular Devices, San Jose, CA, USA); the series resistance compensation was >80% for all cells. […] The WAS02 application system, which can reach the solution exchange time around the recorded cell of 10–20 ms, was used to apply the extracellular solution (ECS).

Data set [8] addresses T3, GluN1/GluN2A receptors (Homo sapiens, UniProt Q05586+Q12879).
T3 construct: expressed in transfected cells; host or cells: HEK293
In words: cell-based. To be noted: for inhibition at 10 µM: HEK293, read-out: RI (%) ± SEM GluN1/GluN2A. The method, then: as §3, §4

Data set [9] deals with NMDA receptor. The conditions noted are these: read-out: IC50 inhibition of NMDA receptor responses; at −60 mV; cited from earlier work.
Where [10] appears, read: final prediction from Papp correlated to reference drugs.
Where [11] appears, read: 40 mV, read-out: IC50 40 mV GluN1/GluN2B.
The mark [12] stands for this setting: −60 mV, read-out: IC50 −60 mV GluN1/GluN2B.
The mark [13] stands for this setting: 40 mV, read-out: IC50 40 mV GluN1/GluN2A.
The mark [14] stands for this setting: −60 mV, read-out: IC50 −60 mV GluN1/GluN2A.

T3 sequence (Q12879 23-1464, other chains not shown): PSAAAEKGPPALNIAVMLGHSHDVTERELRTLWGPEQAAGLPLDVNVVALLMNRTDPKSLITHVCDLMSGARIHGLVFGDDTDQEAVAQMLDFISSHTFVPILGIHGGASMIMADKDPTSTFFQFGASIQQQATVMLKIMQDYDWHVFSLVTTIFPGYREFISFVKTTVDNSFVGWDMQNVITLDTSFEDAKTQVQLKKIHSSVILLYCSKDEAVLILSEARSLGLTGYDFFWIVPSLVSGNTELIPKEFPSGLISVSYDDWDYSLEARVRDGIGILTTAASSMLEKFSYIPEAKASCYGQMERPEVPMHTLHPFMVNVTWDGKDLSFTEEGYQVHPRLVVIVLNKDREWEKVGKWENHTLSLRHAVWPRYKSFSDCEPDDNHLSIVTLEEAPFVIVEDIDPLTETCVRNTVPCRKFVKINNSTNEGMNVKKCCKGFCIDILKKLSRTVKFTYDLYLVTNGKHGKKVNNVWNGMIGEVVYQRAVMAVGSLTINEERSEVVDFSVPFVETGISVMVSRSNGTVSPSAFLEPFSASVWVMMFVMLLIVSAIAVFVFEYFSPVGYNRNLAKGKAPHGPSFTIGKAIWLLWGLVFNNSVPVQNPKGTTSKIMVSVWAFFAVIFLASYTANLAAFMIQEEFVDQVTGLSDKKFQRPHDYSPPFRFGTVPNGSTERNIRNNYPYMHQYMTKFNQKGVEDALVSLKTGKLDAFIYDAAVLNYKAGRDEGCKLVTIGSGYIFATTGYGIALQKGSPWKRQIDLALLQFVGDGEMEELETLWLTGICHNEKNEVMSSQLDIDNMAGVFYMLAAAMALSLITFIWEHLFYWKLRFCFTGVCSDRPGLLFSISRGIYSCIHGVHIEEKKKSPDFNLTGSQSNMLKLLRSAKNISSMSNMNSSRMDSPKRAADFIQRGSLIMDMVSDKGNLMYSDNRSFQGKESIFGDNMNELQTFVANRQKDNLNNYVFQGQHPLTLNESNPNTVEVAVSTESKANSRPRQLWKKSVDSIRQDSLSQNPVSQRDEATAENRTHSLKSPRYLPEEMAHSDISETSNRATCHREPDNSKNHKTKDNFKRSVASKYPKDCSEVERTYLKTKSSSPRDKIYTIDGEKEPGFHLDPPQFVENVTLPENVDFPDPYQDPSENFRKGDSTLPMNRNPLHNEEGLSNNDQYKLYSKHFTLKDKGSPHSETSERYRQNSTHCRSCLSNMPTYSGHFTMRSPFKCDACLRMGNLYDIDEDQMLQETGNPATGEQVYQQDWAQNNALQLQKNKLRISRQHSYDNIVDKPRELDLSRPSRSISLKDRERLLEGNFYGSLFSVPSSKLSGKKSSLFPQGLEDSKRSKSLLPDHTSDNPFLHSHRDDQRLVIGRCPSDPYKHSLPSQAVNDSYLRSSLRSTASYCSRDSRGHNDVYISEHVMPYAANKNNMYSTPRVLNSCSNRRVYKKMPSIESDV
T1 sequence (P06276 29-602): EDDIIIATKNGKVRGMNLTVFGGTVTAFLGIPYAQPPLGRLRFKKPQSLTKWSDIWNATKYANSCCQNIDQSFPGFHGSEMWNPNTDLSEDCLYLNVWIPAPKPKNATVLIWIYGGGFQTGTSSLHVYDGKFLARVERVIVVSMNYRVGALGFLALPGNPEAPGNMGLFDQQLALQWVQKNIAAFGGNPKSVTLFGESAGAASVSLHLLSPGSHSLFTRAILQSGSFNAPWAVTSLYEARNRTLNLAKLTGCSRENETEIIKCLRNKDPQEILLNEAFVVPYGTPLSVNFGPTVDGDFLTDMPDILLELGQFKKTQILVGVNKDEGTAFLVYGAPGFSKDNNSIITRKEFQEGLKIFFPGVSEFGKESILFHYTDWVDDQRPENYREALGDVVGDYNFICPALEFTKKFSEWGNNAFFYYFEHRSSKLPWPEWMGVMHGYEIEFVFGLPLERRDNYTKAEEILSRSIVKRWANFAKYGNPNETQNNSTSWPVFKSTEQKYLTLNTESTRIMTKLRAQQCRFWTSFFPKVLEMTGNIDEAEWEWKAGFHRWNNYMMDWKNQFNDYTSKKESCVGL
T2 sequence (Q13224 27-1484, other chains not shown): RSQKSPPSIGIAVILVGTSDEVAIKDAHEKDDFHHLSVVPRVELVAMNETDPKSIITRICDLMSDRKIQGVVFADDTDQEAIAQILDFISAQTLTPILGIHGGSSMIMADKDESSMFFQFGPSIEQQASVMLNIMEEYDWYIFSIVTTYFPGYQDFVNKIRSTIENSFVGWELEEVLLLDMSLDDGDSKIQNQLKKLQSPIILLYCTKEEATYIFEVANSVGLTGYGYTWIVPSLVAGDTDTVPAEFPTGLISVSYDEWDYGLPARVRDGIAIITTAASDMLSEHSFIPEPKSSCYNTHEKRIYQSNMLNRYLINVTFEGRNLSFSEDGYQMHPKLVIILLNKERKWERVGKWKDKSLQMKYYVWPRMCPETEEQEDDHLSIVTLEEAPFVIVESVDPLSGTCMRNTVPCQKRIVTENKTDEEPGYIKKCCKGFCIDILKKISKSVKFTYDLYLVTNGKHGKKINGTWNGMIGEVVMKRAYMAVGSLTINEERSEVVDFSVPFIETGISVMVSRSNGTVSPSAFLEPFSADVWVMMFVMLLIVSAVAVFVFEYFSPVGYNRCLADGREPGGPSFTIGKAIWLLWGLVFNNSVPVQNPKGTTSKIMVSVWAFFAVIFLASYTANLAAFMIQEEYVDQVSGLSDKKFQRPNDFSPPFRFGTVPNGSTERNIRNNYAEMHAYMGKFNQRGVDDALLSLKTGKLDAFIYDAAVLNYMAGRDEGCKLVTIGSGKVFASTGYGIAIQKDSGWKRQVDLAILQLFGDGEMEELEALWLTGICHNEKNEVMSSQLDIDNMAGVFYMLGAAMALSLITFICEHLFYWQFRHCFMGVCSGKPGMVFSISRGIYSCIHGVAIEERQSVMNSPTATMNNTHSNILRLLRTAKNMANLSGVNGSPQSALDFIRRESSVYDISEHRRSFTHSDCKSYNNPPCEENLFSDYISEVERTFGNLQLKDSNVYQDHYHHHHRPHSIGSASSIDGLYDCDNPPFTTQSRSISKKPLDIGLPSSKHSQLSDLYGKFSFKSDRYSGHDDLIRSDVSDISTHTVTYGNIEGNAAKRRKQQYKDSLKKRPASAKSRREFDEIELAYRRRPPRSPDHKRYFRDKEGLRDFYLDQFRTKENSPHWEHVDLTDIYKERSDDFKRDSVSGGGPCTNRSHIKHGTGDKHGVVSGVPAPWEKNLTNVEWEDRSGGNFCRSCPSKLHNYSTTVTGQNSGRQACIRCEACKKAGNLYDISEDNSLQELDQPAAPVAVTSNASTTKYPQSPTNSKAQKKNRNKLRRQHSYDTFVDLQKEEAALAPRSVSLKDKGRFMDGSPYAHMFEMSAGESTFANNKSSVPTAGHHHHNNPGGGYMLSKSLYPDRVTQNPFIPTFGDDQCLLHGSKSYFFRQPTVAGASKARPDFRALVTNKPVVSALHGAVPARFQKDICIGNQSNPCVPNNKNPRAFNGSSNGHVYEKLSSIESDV

Usually Papp stands for the rate of passage across a membrane or cell layer, normalised by area and donor concentration. Lower therefore signals poor permeation. For orientation: Ki means the equilibrium dissociation constant of an inhibitor or competing ligand from its target. In the case of `Cl.c1ccc2c(c1)-c1ccccc1C2NC1CCCCC1` [Compound 3c, N-Cyclohexyl-9H-fluoren-9-amine hydrochloride], in data set [1], the “times less active compared to THA (hBChE inhibition)” value came out at 20 and the IC50 was 0.47 ± 0.01 µM. Moreover, the IC50 at 24 h in data set [2] came out at 111 ± 10 µM. Besides, in [3] (hCMEC/D3 cells), the viability at 50 µM came out at 93.4% and the viability at 100 µM was 82.9%. In addition, in [4], the “potential of BBB permeation (in words)” value was “low potential to passively pass the BBB”. Also, the “CNS (+/−)” value in [4] (setting [10]) is listed as “CNS −”. The compound further showed an apparent permeability (Papp) in [5] of 12.3 ± 2.33 ×10⁻⁶ cm/s. The compound further had an inhibition constant (Ki) in data set [6] (nonlinear regression, substrate butyrylthiocholine) of 0.173 ± 0.025 µM. Besides, in [6] (sum-of-squares F-test, Cornish–Bowden plot), the type of inhibition result is listed as “competitive inhibition”. Moreover, in data set [7], the inhibition at 10 µM amounted to 17.2 ± 2.39%. Further, the inhibition at 10 µM in data set [8] was 41 ± 3.56%.
In the case of `Cl.c1ccc2c(c1)-c1ccccc1C2NC1CCC1` [Compound 3e, N-Cyclobutyl-9H-fluoren-9-amine hydrochloride], the IC50 in data set [1] amounted to 2.03 ± 0.08 µM; in [7] (setting [11]), 156 ± 14.9 µM; in data set [7] (setting [12]) it was 15.3 ± 2.38 µM; in [8] (setting [13]), 82.6 ± 14.2 µM; in data set [8] (setting [14]) it was 8.85 ± 1.21 µM. Moreover, the IC50 at 24 h in data set [2] is 192 ± 3 µM. Further, the viability at 50 µM in data set [3] (hCMEC/D3 cells) worked out at 92.8%. In [3] (hCMEC/D3 cells), the viability at 100 µM is 92.3%. Moreover, in data set [4], the “potential of BBB permeation (in words)” value is “low potential to passively pass the BBB”. Further, the “CNS (+/−)” value in [4] (setting [10]) is “CNS −”. In [5], this compound had an apparent permeability coefficient (Papp) of 13.5 ± 1.54 ×10⁻⁶ cm/s. Further, the “h 40 mV GluN1/GluN2B (Hill coefficient)” value in data set [7] (40 mV) was found to be 1.10 ± 0.08. Moreover, the inhibition at 10 µM in [7] is 44.8 ± 3.43%; in data set [8] it was 52.3 ± 4.18%. In [7] (−60 mV), the “h −60 mV GluN1/GluN2B (Hill coefficient)” value was 1.17 ± 0.05. Further, the “h 40 mV GluN1/GluN2A (Hill coefficient)” value in [8] (40 mV) was 1.28 ± 0.12. Also, in data set [8] (−60 mV), the “h −60 mV GluN1/GluN2A (Hill coefficient)” value amounted to 1.07 ± 0.05.
Regarding `CCCCNC1c2ccccc2-c2ccccc21.Cl` [Compound 3m, N-Butyl-9H-fluoren-9-amine hydrochloride], the IC50 in data set [1] came out at 1.02 ± 0.03 µM; in data set [7] (setting [11]), 221 ± 12.2 µM; in data set [7] (setting [12]), 11.7 ± 1.72 µM; in data set [8] (setting [13]) it was 114 ± 26.6 µM; in data set [8] (setting [14]), 14.2 ± 1.6 µM. The IC50 at 24 h in data set [2] was found to be 140 ± 15 µM. Further, the viability at 50 µM in [3] (hCMEC/D3 cells) amounted to 82.1%. Also, in [3] (hCMEC/D3 cells), the viability at 100 µM was 80.1%. Besides, the “potential of BBB permeation (in words)” value in [4] was “corresponds to those of standard drugs with high CNS permeability”. Also, in [4] (setting [10]), the “CNS (+/−)” value is on record as “CNS +”. Besides, in [5], the Papp came out at 18.5 ± 2.37 ×10⁻⁶ cm/s. Also, the “h 40 mV GluN1/GluN2B (Hill coefficient)” value in [7] (40 mV) turned out to be 0.97 ± 0.10. Moreover, the inhibition at 10 µM was 51.2 ± 3.24% in [7] and 36.2 ± 3.73% in data set [8]. In addition, the “h −60 mV GluN1/GluN2B (Hill coefficient)” value in data set [7] (−60 mV) is given as 1.12 ± 0.05. In addition, in data set [8] (40 mV), the “h 40 mV GluN1/GluN2A (Hill coefficient)” value was 1.23 ± 0.13. Further, in [8] (−60 mV), the “h −60 mV GluN1/GluN2A (Hill coefficient)” value was 1.19 ± 0.14.
Take `Nc1c2c(nc3ccccc13)CCCC2` [THA, Tacrine, reference compound]: in [3], the viability at 50 µM was found to be 91.1% and the viability at 100 µM came out at 94.5%. Further, the “CNS (+/−)” value in data set [4] is listed as “CNS +”. The compound further gave an apparent permeability coefficient (Papp) in data set [5] of 22.3 ± 2.01 ×10⁻⁶ cm/s. In addition, the IC50 in [9] was 20 µM.
